Measured values from patent US10703757B2, “Compounds and methods for CDK8 modulation and indications therefor” (Plexxikon Inc., priority 2016, dated 2020).

Tests used:
[1] = test system: CDK8 (phosphorylation of STAT1 at serine 727 in A549 cells); assay: Cell based Phospho-STAT1 assay (IFNγ-stimulated A549 cells, AlphaLISA); conditions: Homo sapiens, A549, A549 cells, phospho-STAT1 after IFNγ stimulation
Method in brief: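 A549 cells given serial compound dilutions for 1 h at 37 °C, then stimulated with IFNγ at 10 ng/mL final for 30 min. Lysate STAT1 Ser727 phosphorylation measured by AlphaLISA; % inhibition vs stimulated/unstimulated DMSO controls, IC50 by nonlinear regression.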

[2] = test system: CDK8 (TCF/LEF luciferase reporter in HCT116 cells); assay: Cell based TCF/LEF reporter assay (HCT116+TCF/LEF luciferase); conditions: Homo sapiens, HCT-116, 24 h
Method in brief: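 HCT116 cells stably carrying a TCF/LEF-luciferase reporter (endogenous mutant β-catenin), seeded overnight, then exposed to serial compound dilutions for 24 h at 37 °C. Luminescence normalized to CellTiter-Fluor viability signal. % inhibition relative to DMSO and 10 uM CCT251545 controls, with IC50 from nonlinear regression.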

IC50 [1]	IC50 [2]	SMILES
0.1 to 100 nM	0.1 to 100 nM	Cn1cc(-c2ccc(-c3cnn4ccnc(C5CCC(C(N)=O)CC5)c34)cc2)cn1 (centres unmarked) [Compound P-0247, 4-(3-(4-(1-methyl-1H-pyrazol-4-yl)phenyl)pyrazolo[1,5-a]pyrazin-4-yl)cyclohexane-1-carboxamide]
1000 to 10000 nM	1000 to 10000 nM	N#CC1CCN(c2cccn3ncc(-c4ccc(OC5CCCCC5)cc4)c23)CC1 [Compound P-0265, 1-(3-(4-(cyclo-hexyloxy)phenyl)pyrazolo[1,5-a]pyridin-4-yl)piperidine-4-carbonitrile]
0.1 to 100 nM	0.1 to 100 nM	COc1ccc(-c2cnn3ccnc(C4=CCC(C#N)CC4)c23)cc1Cl (centres unmarked) [Compound P-0041, 4-(3-(3-chloro-4-methoxyphenyl)pyrazolo[1,5-a]pyrazin-4-yl)cyclohex-3-ene-1-carbonitrile]
100 to 1000 nM	0.1 to 100 nM	CC(C)(C#Cc1cccn2ncc(-c3ccc4c(cnn4C(F)F)c3)c12)C(=O)O [Compound P-0067, 4-(3-(1-(difluoromethyl)-1H-indazol-5-yl)pyrazolo[1,5-a]pyridin-4-yl)-2,2-dimethylbut-3-ynoic acid]
0.1 to 100 nM	100 to 1000 nM	CNC(=O)C1CCC(c2cccn3ncc(-c4ccc(-c5cnn(C(F)F)c5)cc4)c23)CC1 (centres unmarked) [Compound P-0317, 4-(3-(4-(1-(difluoromethyl)-1H-pyrazol-4-yl)phenyl)pyrazolo[1,5-a]pyridin-4-yl)-N-methylcyclohexane-1-carboxamide]
0.1 to 100 nM	0.1 to 100 nM	N#CC1CCN(c2c(-c3ccc(-n4ccnn4)cc3)cnc3[nH]ccc23)CC1 [Compound P-0220, 1-(5-(4-(1H-1,2,3-triazol-1-yl)phenyl)-1H-pyrrolo[2,3-b]pyridin-4-yl)piperidine-4-carbonitrile]
0.1 to 100 nM	0.1 to 100 nM	N#CC1CC=C(c2nccn3ncc(-c4ccc(-c5cn[nH]c5)cc4)c23)CC1 (centres unmarked) [Compound P-0008, 4-(3-(4-(1H-pyrazol-4-yl)phenyl)pyrazolo[1,5-a]pyrazin-4-yl)cyclohex-3-ene-1-carbonitrile]
100 to 1000 nM	0.1 to 100 nM	Cc1ccc(-c2cnn3ccnc(C4=CCC(C(N)=O)CC4)c23)cn1 (centres unmarked) [Compound P-0152, 4-(3-(6-methylpyridin-3-yl)pyrazolo[1,5-a]pyrazin-4-yl)cyclohex-3-ene-1-carboxamide]
0.1 to 100 nM	0.1 to 100 nM	N#CC1CC=C(c2nccn3ncc(-c4ccc5c(cnn5CC(F)(F)F)c4)c23)CC1 (centres unmarked) [Compound P-0063, 4-(3-(1-(2,2,2-trifluoroethyl)-1H-indazol-5-yl)pyrazolo[1,5-a]pyrazin-4-yl)cyclohex-3-ene-1-carbonitrile]
100 to 1000 nM	0.1 to 100 nM	CC(C)(O)Cn1cc(-c2ccc(-c3cnc4[nH]ccc4c3C3=CCC(C(N)=O)CC3)cc2F)cn1 (centres unmarked) [Compound P-0134, 4-(5-(3-fluoro-4-(1-(2-hydroxy-2-methylpropyl)-1H-pyrazol-4-yl)phenyl)-1H-pyrrolo[2,3-b]pyridin-4-yl)cyclohex-3-ene-1-carboxamide]
100 to 1000 nM	100 to 1000 nM	N#CC1CC=C(c2nccn3ncc(-c4ccc(-c5cnn(CC(=O)O)c5)c(F)c4)c23)CC1 (centres unmarked) [Compound P-0116, 2-(4-(4-(4-(4-cyanocyclohex-1-en-1-yl)pyrazolo[1,5-a]pyrazin-3-yl)-2-fluorophenyl)-1H-pyrazol-1-yl)acetic acid]
1000 to 10000 nM	1000 to 10000 nM	CC1=NC2(CCN(c3cccc4ncc(C#Cc5cnn(C)c5)n34)CC2)C(=O)N1 [Compound P-0276, 2-methyl-8-(3-((1-methyl-1H-pyrazol-4-yl)ethynyl)imidazo[1,2-a]pyridin-5-yl)-1,3,8-triazaspiro[4.5]dec-1-en-4-one]
0.1 to 100 nM	0.1 to 100 nM	CC(C)(C#Cc1cccn2ncc(-c3ccc(-c4cnn(CC(F)(F)F)c4)cc3)c12)C(N)=O [Compound P-0468, 2,2-dimethyl-4-(3-(4-(1-(2,2,2-trifluoroethyl)-1H-pyrazol-4-yl)phenyl)pyrazolo[1,5-a]pyridin-4-yl)but-3-ynamide]
1000 to 10000 nM	1000 to 10000 nM	O=C(O)C1CC=C(c2cccn3ncc(-c4ccc(-n5cccn5)cc4)c23)CC1 (centres unmarked) [Compound P-0213, 4-(3-(4-(1H-pyrazol-1-yl)phenyl)pyrazolo[1,5-a]pyridin-4-yl)cyclohex-3-ene-1-carboxylic acid]
0.1 to 100 nM	0.1 to 100 nM	N#CC1CCN(c2cccn3ncc(-c4ccc(OCC5CCCCO5)cc4)c23)CC1 (centres unmarked) [Compound P-0264, 1-(3-(4-((tetrahydro-2H-pyran-2-yl)methoxy)phenyl)pyrazolo[1,5-a]pyridin-4-yl)piperidine-4-carbonitrile]
0.1 to 100 nM	0.1 to 100 nM	N#CCCn1cc(-c2ccc(-c3cnn4ccnc(C5CCC(C#N)CC5)c34)cc2)cn1 (centres unmarked) [Compound P-0098, 4-(3-(4-(1-(2-cyanoethyl)-1H-pyrazol-4-yl)phenyl)pyrazolo[1,5-a]pyrazin-4-yl)cyclohexane-1-carbonitrile]
0.1 to 100 nM	0.1 to 100 nM	N#CC1CC=C(c2cccn3ncc(-c4ccc(OCCCN5CCCCC5)cc4)c23)CC1 (centres unmarked) [Compound P-0180, 4-(3-(4-(3-(piperidin-1-yl)propoxy)phenyl)pyrazolo[1,5-a]pyridin-4-yl)cyclohex-3-ene-1-carbonitrile]
0.1 to 100 nM	0.1 to 100 nM	Cn1cc(-c2ccc(-c3cnn4ccnc(C5CCC(C#N)CC5)c34)cc2)cn1 (centres unmarked) [Compound P-0059, (1s,4s)-4-(3-(4-(1-methyl-1H-pyrazol-4-yl)phenyl)pyrazolo[1,5-a]pyrazin-4-yl)cyclohexane-1-carbonitrile]
0.1 to 100 nM	0.1 to 100 nM	N#CC1CCC(c2nccn3ncc(-c4ccc(OCCOC5CCOCC5)cc4)c23)CC1 (centres unmarked) [Compound P-0058, (1s,4s)-4-(3-(4-(2-((tetrahydro-2H-pyran-4-yl)oxy)ethoxy)phenyl)pyrazolo[1,5-a]pyrazin-4-yl)cyclohexane-1-carbonitrile]
0.1 to 100 nM	0.1 to 100 nM	N#CC1CC=C(c2nccn3ncc(-c4ccc(Cl)cc4)c23)CC1 (centres unmarked) [Compound P-0090, 4-(3-(4-chlorophenyl)pyrazolo[1,5-a]pyrazin-4-yl)cyclohex-3-ene-1-carbonitrile]
0.1 to 100 nM	0.1 to 100 nM	CC(C)(O)Cn1cc(-c2ccc(-c3cnn4ccnc(C5=CCC(C#N)CC5)c34)cc2F)cn1 (centres unmarked) [Compound P-0163, 4-(3-(3-fluoro-4-(1-(2-hydroxy-2-methylpropyl)-1H-pyrazol-4-yl)phenyl)pyrazolo[1,5-a]pyrazin-4-yl)cyclohex-3-ene-1-carbonitrile]
0.1 to 100 nM	100 to 1000 nM	CC(C)(O)C#Cc1cccn2ncc(-c3ccc4cc(C(N)=O)ccc4c3)c12 [Compound P-0191, 6-(4-(3-hydroxy-3-methylbut-1-yn-1-yl)pyrazolo[1,5-a]pyridin-3-yl)-2-naphthamide]
100 to 1000 nM	100 to 1000 nM	Cn1cc(C#Cc2cnc3cccc(N4CCC(C(N)=O)C4)n23)cn1 (centres unmarked) [Compound P-0241, 1-(3-((1-methyl-1H-pyrazol-4-yl)ethynyl)imidazo[1,2-a]pyridin-5-yl)pyrrolidine-3-carboxamide]
100 to 1000 nM	100 to 1000 nM	Cn1cc(-c2ccc(-c3cnn4cccc(N5CC6CCC(C5)C6C#N)c34)cc2)cn1 (centres unmarked) [Compound P-0159, 3-(3-(4-(1-methyl-1H-pyrazol-4-yl)phenyl)pyrazolo[1,5-a]pyridin-4-yl)-3-azabicyclo[3.2.1]octane-8-carbonitrile]
0.1 to 100 nM	100 to 1000 nM	N#CC1CC=C(c2cccn3ncc(-c4ccc(CN5CCOCC5)c(F)c4)c23)CC1 (centres unmarked) [Compound P-0120, 4-(3-(3-fluoro-4-(morpholinomethyl)phenyl)pyrazolo[1,5-a]pyridin-4-yl)cyclohex-3-ene-1-carbonitrile]
0.1 to 100 nM	0.1 to 100 nM	CS(=O)(=O)Nc1ccc2cc(-c3cnn4ccnc(C5=CCC(C#N)CC5)c34)ccc2c1 (centres unmarked) [Compound P-0166, N-(6-(4-(4-cyanocyclohex-1-en-1-yl)pyrazolo[1,5-a]pyrazin-3-yl)naphthalen-2-yl)methanesulfonamide]
100 to 1000 nM	100 to 1000 nM	N#CC1CC=C(c2nccn3ncc(-c4cnn(C5CC5)c4)c23)CC1 (centres unmarked) [Compound P-0076, 4-(3-(1-cyclopropyl-1H-pyrazol-4-yl)pyrazolo[1,5-a]pyrazin-4-yl)cyclohex-3-ene-1-carbonitrile]
0.1 to 100 nM	0.1 to 100 nM	CC(C)(O)Cn1cc(-c2ccc(-c3cnn4ccnc(C5=CCC(C#N)CC5)c34)cc2)cn1 (centres unmarked) [Compound P-0162, 4-(3-(4-(1-(2-hydroxy-2-methylpropyl)-1H-pyrazol-4-yl)phenyl)pyrazolo[1,5-a]pyrazin-4-yl)cyclohex-3-ene-1-carbonitrile]
0.1 to 100 nM	100 to 1000 nM	NC(=O)C1CC=C(c2cccn3ncc(-c4ccc(-n5cccn5)cc4)c23)CC1 (centres unmarked) [Compound P-0197, 4-(3-(4-(1H-pyrazol-1-yl)phenyl)pyrazolo[1,5-a]pyridin-4-yl)cyclohex-3-ene-1-carboxamide]
0.1 to 100 nM	0.1 to 100 nM	N#CC1CC=C(c2nccn3ncc(-c4ccc(OCC(O)CN5CCCCC5)cc4)c23)CC1 (centres unmarked) [Compound P-0084, 4-(3-(4-(2-hydroxy-3-(piperidin-1-yl)propoxy)phenyl)pyrazolo[1,5-a]pyrazin-4-yl)cyclohex-3-ene-1-carbonitrile]

SMILES	IC50 [1]	IC50 [2]
Cn1cc(-c2ccc(-c3cnn4cccc(N5C6CCC5CC(C#N)C6)c34)cc2)cn1 (centres unmarked) [Compound P-0248, 8-(3-(4-(1-methyl-1H-pyrazol-4-yl)phenyl)pyrazolo[1,5-a]pyridin-4-yl)-8-azabicyclo[3.2.1]octane-3-carbonitrile]	0.1 to 100 nM	0.1 to 100 nM
